Active and inactive are the calls of the source. No cut-off for these calls is given here.
Legend:
[1] = biological target: T1, von Hippel-Lindau disease tumor suppressor/Mitogen-activated protein kinase 7 (Homo sapiens, UniProt Q13164+P40337); assay: PROTAC activity at VHL/ERK5 in human A-375 cells assessed as induction of ERK5 degradation at 200 nM pretreated for 1 hr with E3 ligase inhibitor, MLN4924 followed by incubation with compound for 12 hrs by western blot analysis; format: cell-based
Target sequence in this assay (P40337 whole entry partner): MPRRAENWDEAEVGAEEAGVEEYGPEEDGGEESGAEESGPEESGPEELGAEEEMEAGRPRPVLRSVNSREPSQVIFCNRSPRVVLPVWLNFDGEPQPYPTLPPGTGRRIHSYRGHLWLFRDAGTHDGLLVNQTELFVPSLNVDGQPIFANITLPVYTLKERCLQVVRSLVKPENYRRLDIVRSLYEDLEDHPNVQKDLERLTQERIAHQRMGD
Target sequence in this assay (Q13164 2-816 limits assumed): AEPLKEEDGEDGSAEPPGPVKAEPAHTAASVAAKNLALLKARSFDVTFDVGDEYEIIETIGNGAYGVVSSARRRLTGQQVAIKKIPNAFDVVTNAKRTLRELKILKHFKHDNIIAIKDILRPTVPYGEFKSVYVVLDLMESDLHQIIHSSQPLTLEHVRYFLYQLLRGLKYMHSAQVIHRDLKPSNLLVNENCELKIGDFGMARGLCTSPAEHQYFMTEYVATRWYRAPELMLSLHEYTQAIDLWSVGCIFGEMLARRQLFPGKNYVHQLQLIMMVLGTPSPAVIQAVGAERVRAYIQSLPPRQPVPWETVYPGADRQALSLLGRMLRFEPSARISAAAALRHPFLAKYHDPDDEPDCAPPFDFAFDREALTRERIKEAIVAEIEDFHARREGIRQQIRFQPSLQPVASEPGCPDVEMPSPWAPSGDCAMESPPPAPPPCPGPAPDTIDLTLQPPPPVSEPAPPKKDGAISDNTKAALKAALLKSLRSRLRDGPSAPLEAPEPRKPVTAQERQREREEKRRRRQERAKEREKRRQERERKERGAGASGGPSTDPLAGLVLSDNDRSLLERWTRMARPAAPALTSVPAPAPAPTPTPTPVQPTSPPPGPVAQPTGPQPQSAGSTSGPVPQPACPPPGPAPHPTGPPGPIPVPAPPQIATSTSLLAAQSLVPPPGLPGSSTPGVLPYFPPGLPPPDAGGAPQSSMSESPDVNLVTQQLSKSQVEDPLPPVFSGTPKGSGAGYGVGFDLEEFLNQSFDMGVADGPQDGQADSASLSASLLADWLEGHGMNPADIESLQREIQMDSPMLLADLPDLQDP

PC-3 = assay: Antiproliferative activity against human PC-3 cells assessed as reduction in cell viability incubated for 72 hrs by CCK8 assay; format: functional, cell-based
[2] = biological target: T1, von Hippel-Lindau disease tumor suppressor/Mitogen-activated protein kinase 7; assay: PROTAC activity at VHL/ERK5 in human HCT-116 cells assessed as maximal induction of ERK5 degradation incubated for 12 hrs by western blot analysis relative to control; format: cell-based
Target sequence in this assay (P40337 whole entry partner): as the sequence (P40337 whole entry partner) above
Target sequence in this assay (Q13164 2-816 limits assumed): as the sequence (Q13164 2-816 limits assumed) above

[3] = biological target: von Hippel-Lindau disease tumor suppressor/Serine/threonine-protein kinase DCLK1 (Homo sapiens) (UniProt O15075+P40337); assay: PROTAC activity at VHL/DCLK1 in human A-375 cells assessed as induction of DCLK1 degradation at 6 to 500 nM incubated for 12 hrs by western bot analysis; format: cell-based; conditions: dose 6-500 nM
[4] = biological target: T1, von Hippel-Lindau disease tumor suppressor/Mitogen-activated protein kinase 7; assay: PROTAC activity at VHL/ERK5 in human PC-3 cells assessed as induction of ERK5 degradation incubated for 12 hrs by western blot analysis; format: cell-based
Target sequence in this assay (Q13164 whole entry): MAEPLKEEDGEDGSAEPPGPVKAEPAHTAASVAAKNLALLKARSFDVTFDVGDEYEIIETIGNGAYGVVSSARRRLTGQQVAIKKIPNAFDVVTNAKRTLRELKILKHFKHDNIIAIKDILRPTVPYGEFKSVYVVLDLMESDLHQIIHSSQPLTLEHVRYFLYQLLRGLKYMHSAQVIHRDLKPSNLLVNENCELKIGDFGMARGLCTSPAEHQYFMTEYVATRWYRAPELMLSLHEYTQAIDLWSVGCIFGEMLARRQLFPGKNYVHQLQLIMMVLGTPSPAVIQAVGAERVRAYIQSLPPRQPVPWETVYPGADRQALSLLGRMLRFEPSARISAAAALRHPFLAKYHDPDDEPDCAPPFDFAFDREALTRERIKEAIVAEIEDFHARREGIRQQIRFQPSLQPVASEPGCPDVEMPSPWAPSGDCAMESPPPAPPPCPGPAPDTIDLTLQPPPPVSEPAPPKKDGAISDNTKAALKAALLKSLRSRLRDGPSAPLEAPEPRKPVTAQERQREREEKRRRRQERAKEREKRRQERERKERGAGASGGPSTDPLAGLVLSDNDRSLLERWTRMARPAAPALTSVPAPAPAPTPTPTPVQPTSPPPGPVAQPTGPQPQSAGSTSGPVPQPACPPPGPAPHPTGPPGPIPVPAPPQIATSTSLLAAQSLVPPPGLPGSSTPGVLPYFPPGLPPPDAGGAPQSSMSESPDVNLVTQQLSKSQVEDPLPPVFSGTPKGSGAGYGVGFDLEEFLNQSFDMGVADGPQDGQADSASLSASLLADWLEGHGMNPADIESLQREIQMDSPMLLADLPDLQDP
Target sequence in this assay (P40337 whole entry): as the sequence (P40337 whole entry partner) above

[5] = biological target: Mitogen-activated protein kinase 7 (Homo sapiens, UniProt Q13164); assay: Inhibition of ERK5 (unknown origin) by ADP-Glo kinase assay
A-375 [6] = assay: Effect on ERK5 mRNA expression in human A-375 cells at 10 to 1000 nM incubated for 24 hrs by real-time PCR analysis; format: functional, cell-based; conditions: dose 10-1000 nM
HCT-116 [7] = assay: Effect on GDC0994-induced antitumor activity against human HCT-116 cells assessed as reduction in cell viability at 200 nM incubated for 72 hrs by CCK8 assay; format: functional, cell-based
[8] = biological target: T1, von Hippel-Lindau disease tumor suppressor/Mitogen-activated protein kinase 7; assay: PROTAC activity at VHL/ERK5 in human MDA-MB-231 cells assessed as maximal induction of ERK5 degradation incubated for 12 hrs by western blot analysis relative to control; format: cell-based
Target sequence in this assay (P40337 whole entry partner): as above
Target sequence in this assay (Q13164 2-816 limits assumed): as the sequence (Q13164 2-816 limits assumed) above

[9] = biological target: T1, von Hippel-Lindau disease tumor suppressor/Mitogen-activated protein kinase 7; assay: PROTAC activity at VHL/ERK5 in human MDA-MB-231 cells assessed as induction of ERK5 degradation incubated for 12 hrs by western blot analysis; format: cell-based
Target sequence in this assay (Q13164 whole entry): as the sequence (Q13164 whole entry) above
Target sequence in this assay (P40337 whole entry): as the sequence (P40337 whole entry partner) above

[10] = biological target: von Hippel-Lindau disease tumor suppressor/Bromodomain-containing protein 4 (Homo sapiens) (UniProt O60885+P40337); assay: PROTAC activity at VHL/BRD4 in human A-375 cells assessed as induction of BRD4 degradation at 6 to 500 nM incubated for 12 hrs by western bot analysis; format: cell-based; conditions: dose 6-500 nM
[11] = biological target: T1, von Hippel-Lindau disease tumor suppressor/Mitogen-activated protein kinase 7; assay: PROTAC activity at VHL/ERK5 in human THP-1 cells assessed as decrease in IL-6 level at 0.5 uM incubated for 0.5 hrs followed by incubation with LPS for 24 hrs; format: cell-based; conditions: time 24.5 hrs
Target sequence in this assay (P40337 whole entry partner): as above
Target sequence in this assay (Q13164 2-816 limits assumed): as the sequence (Q13164 2-816 limits assumed) above

A-375 [12] = assay: Effect on GDC0994-induced antitumor activity against human A-375 cells assessed as reduction in cell viability at 200 nM incubated for 72 hrs by CCK8 assay; format: functional, cell-based
[13] = biological target: T1, von Hippel-Lindau disease tumor suppressor/Mitogen-activated protein kinase 7; assay: PROTAC activity at VHL/ERK5 in human PC-3 cells assessed as maximal induction of ERK5 degradation incubated for 12 hrs by western blot analysis relative to control; format: cell-based
Target sequence in this assay (P40337 whole entry partner): as the sequence (P40337 whole entry partner) above
Target sequence in this assay (Q13164 2-816 limits assumed): as the sequence (Q13164 2-816 limits assumed) above

[14] = biological target: T1, von Hippel-Lindau disease tumor suppressor/Mitogen-activated protein kinase 7; assay: PROTAC activity at VHL/ERK5 in human A-375 cells assessed as induction of ERK5 degradation at 100 nM incubated for 24 hrs by western blot analysis; format: cell-based
Target sequence in this assay (P40337 whole entry partner): as the sequence (P40337 whole entry partner) above
Target sequence in this assay (Q13164 2-816 limits assumed): as the sequence (Q13164 2-816 limits assumed) above

[15] = biological target: T1, von Hippel-Lindau disease tumor suppressor/Mitogen-activated protein kinase 7; assay: PROTAC activity at VHL/ERK5 in human A-375 cells assessed as induction of ERK5 degradation at 1.1 microM incubated for 12 hrs by western blot analysis; format: cell-based
[16] = biological target: T1, von Hippel-Lindau disease tumor suppressor/Mitogen-activated protein kinase 7; assay: PROTAC activity at VHL/ERK5 in human HepG2 cells assessed as maximal induction of ERK5 degradation incubated for 12 hrs by western blot analysis relative to control; format: cell-based
HCT-116 [17] = assay: Inhibition of cell colony formation in human HCT-116 cells at 0.5 uM cultured in 8% FBS and measured after 7 days in presence of LPS by crystal violet staining based analysis; format: functional; conditions: time 7.0 day
A-375 [18] = assay: Effect on cell migration in human A-375 cells at 0.01 to 1 uM incubated for 24 hrs by crystal violet staining based transwell assay; format: functional; conditions: dose 0.01-1 µM
HCT-116 [19] = assay: Inhibition of M2 macrophage development in human HCT-116 cells assessed as inhibition of cell colony formation at 0.5 uM cultured in macrophage M0 medium and measured after 7 days in presence of LPS by crystal violet staining based analysis; format: functional; conditions: time 7.0 day
HepG2 = assay: Antiproliferative activity against human HepG2 cells assessed as reduction in cell viability incubated for 72 hrs by CCK8 assay; format: functional, cell-based
[20] = biological target: T1, von Hippel-Lindau disease tumor suppressor/Mitogen-activated protein kinase 7; assay: PROTAC activity at VHL/ERK5 in human THP-1 cells assessed as decrease in IL-10 level at 0.5 uM incubated for 0.5 hrs followed by incubation with LPS for 24 hrs; format: cell-based; conditions: time 24.5 hrs

Sequence of Mitogen-activated protein kinase 7 (Q13164 whole entry): as the sequence (Q13164 whole entry) above
Sequence of von Hippel-Lindau disease tumor suppressor/Serine/threonine-protein kinase DCLK1 (Homo sapiens) (O15075 whole entry, looked up): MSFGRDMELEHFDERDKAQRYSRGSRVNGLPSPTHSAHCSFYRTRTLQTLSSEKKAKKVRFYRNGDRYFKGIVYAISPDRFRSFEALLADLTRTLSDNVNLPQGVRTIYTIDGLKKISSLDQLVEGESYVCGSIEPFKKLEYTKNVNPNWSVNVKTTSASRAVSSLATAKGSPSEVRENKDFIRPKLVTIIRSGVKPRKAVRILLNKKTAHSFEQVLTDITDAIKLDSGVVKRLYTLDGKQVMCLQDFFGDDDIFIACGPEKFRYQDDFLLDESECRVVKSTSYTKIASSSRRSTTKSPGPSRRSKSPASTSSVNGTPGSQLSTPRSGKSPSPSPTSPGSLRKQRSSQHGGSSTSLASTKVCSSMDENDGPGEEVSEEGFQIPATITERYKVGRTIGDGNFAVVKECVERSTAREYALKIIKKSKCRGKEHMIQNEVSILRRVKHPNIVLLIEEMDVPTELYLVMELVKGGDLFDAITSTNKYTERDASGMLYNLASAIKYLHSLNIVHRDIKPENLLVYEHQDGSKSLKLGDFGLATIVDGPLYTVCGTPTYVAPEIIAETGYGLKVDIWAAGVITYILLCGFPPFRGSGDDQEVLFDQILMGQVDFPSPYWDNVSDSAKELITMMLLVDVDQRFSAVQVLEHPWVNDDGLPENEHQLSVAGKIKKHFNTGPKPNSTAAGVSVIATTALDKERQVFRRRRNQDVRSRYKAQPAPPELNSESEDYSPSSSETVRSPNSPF
Sequence of von Hippel-Lindau disease tumor suppressor/Serine/threonine-protein kinase DCLK1 (Homo sapiens) (P40337 whole entry, looked up): as the sequence (P40337 whole entry partner) above
Sequence of von Hippel-Lindau disease tumor suppressor/Bromodomain-containing protein 4 (Homo sapiens) (P40337 whole entry, looked up, other chains not shown): as the sequence (P40337 whole entry partner) above

Activity [1]: inactive
Activity [2]: 88.9%
Activity [3]: inactive
DC50 [4]: 23.5 nM
IC50 [5]: 62.4 nM
Activity [8]: 86.7%
DC50 [9]: 22.7 nM
Activity [10]: inactive
Activity [11]: Active
Activity [13]: 89.4%
Activity [14]: Active
Activity [15]: inactive
Activity [16]: 92.7%
Activity [20]: Active
SMILES: COc1cc(N2CCN(CCCCCCC(=O)N[C@H](C(=O)N3C[C@H](O)C[C@H]3C(=O)N[C@@H](C)c3ccc(-c4scnc4C)cc3)C(C)(C)C)CC2)ccc1Nc1ncc2c(n1)N(C)c1ccccc1C(=O)N2C
Activity (PC-3): inactive
Activity (A-375 [6]): inactive
Activity (HCT-116 [7]): inactive
Activity (A-375 [12]): inactive
inhibition (HCT-116 [17]): inactive
Activity (A-375 [18]): inactive
inhibition (HCT-116 [19]): Active
Activity (HepG2): inactive
